Assay results as given in patent publication US5134137A, “Cephalosporin antibiotics” (The Upjohn Company, priority 1990, dated 1992).
≈ marks a conversion by molar mass, not a printed value. Read-outs that look alike come from different tables or passages of the source.

Columns and labels:
[1] = test system: Streptococcus agalactiae; assay: MIC, agar dilution, Streptococcus agalactiae; type: cell-based; details: Streptococcus agalactiae, read-out: MIC
In short: (§1)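 Each organism receives an inoculum of approx. 10^3–10^4 CFU, taken from a 5% CO2 BHI subculture standardised to 0.5 McFarland and diluted 1:20. It is spotted on Mueller-Hinton agar containing the compound, then incubated for 16–18 h at 37 °C with CO2.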

[2] = Stability of the compound; type: physicochemical
[3] = test system: Salmonella typhimurium; assay: MIC, agar dilution, Salmonella typhimurium; type: cell-based; details: Salmonella enterica, read-out: MIC
In short: as §1

[4] = Serum half life / duration of antibiotic action
[5] = test system: Escherichia coli; assay: MIC, agar dilution, Escherichia coli; type: cell-based; details: Escherichia coli, read-out: MIC
In short: as §1

[6] = test system: Corynebacterium pyogenes; assay: MIC, agar dilution, Corynebacterium pyogenes; type: cell-based; details: strain 213-2; read-out: MIC
In short: as §1

[7] = test system: Salmonella choleraesuis; assay: MIC, agar dilution, Salmonella choleraesuis; type: cell-based; details: Salmonella enterica, read-out: MIC
In short: as §1

[8] = test system: Streptococcus bovis; assay: MIC, agar dilution, Streptococcus bovis; type: cell-based; details: Streptococcus equinus; strain UC6281; read-out: MIC
In short: as §1

[9] = test system: Micrococcus luteus; assay: MIC, agar dilution, Micrococcus luteus; type: cell-based; details: Micrococcus luteus; strain UC130; read-out: MIC
In short: as §1

[10] = TYPHIMURIUM / UC6162, strain UC6162
[11] = TYPHIMURIUM / UC6164, strain UC6164
[12] = CHOLERAESUIS / UC6073, strain UC6073
[13] = CHOLERAESUIS / UC6077, strain UC6077

MIC ([1]; strain UC3947)	MIC ([1]; strain UC6892)	stability in alkaline solution ([2]; alkaline solution)	stability in the dry state ([2]; dry state, white powder)	MIC [3, 10]	MIC [3, 11]	serum half life ([4]; inferred from results against Salmonella typhimurium)	MIC ([5]; strain ATCC25922)	MIC ([5]; strain P75-1)	MIC ([5]; strain UC3784)	MIC ([5]; strain UC6720)	MIC [6]	MIC [8]	MIC [9]	SMILES	stability in strongly acidic media ([2]; strongly acidic media)	duration of antibiotic action ([4]; compared with ceftiofur)	MIC [7, 12]	MIC [7, 13]
≤ 0.06 µg/mL	≤ 0.06 µg/mL	decomposes quickly	stable in the dry state	0.5 µg/mL	0.5 µg/mL	longer serum half life	0.5 µg/mL	0.5 µg/mL	0.5 µg/mL	0.5 µg/mL	0.25 µg/mL	≤ 0.06 µg/mL	–	CO/N=C(\C(=O)N[C@@H]1C(=O)N2C(C(=O)O)=C(CS)CS[C@H]12)c1csc(N)n1 [Formula III compound, 3-mercaptomethyl-7β-[2-(2-amino-1,3-thiazol-4-yl)-(Z)-2-(methoxyimino)acetamido]ceph-3-em-4-carboxylic acid]	converted to the 3,4-thio-lactone derivative	biologically longer acting as an antibiotic than ceftiofur	2 µg/mL	1 µg/mL
≤ 0.06 µg/mL	≤ 0.06 µg/mL	–	–	0.25 µg/mL (≈ 0.477 µM)	0.25 µg/mL (≈ 0.477 µM)	–	0.13 µg/mL (≈ 0.248 µM)	0.13 µg/mL (≈ 0.248 µM)	0.13 µg/mL (≈ 0.248 µM)	0.13 µg/mL (≈ 0.248 µM)	< 0.06 µg/mL	≤ 0.06 µg/mL	0.25 µg/mL (≈ 0.477 µM)	CO/N=C(\C(=O)N[C@@H]1C(=O)N2C(C(=O)O)=C(CSC(=O)c3ccco3)CS[C@H]12)c1csc(N)n1 [ceftiofur, 7-[2-(amino-1,3-thiazol-4-yl)-2-(methoxyimino)acetamido]-3-[(fur-2-ylcarbonyl)thiomethyl]-3-cephem-4-carboxylic acid, reference compound]	–	–	1 µg/mL (≈ 1.91 µM)	2 µg/mL (≈ 3.82 µM)

SMILES	MIC ([1]; strain UC3947)	MIC ([1]; strain UC6892)	stability in alkaline solution ([2]; alkaline solution)	stability in the dry state ([2]; dry state, white powder)	MIC [3, 10]	MIC [3, 11]	serum half life ([4]; inferred from results against Salmonella typhimurium)	MIC ([5]; strain ATCC25922)	MIC ([5]; strain P75-1)	MIC ([5]; strain UC3784)	MIC ([5]; strain UC6720)	MIC [6]	MIC [8]	MIC [9]	stability in strongly acidic media ([2]; strongly acidic media)	duration of antibiotic action ([4]; compared with ceftiofur)	MIC [7, 12]	MIC [7, 13]
CO/N=C(\C(=O)N[C@@H]1C(=O)N2C(C(=O)O)=C(CO)CS[C@H]12)c1csc(N)n1 [desacetyl cefotoxime, 7-[2-(2-amino-1,3-thiazol-4-yl)-(syn)-2-methoxyiminoacetamido]-3-hydroxymethylceph-3-em-4-carboxylic acid, reference compound]	≤ 0.6 µg/mL	≤ 0.06 µg/mL	–	–	0.13 µg/mL (≈ 0.314 µM)	0.13 µg/mL (≈ 0.314 µM)	–	0.25 µg/mL (≈ 0.605 µM)	0.25 µg/mL (≈ 0.605 µM)	0.25 µg/mL (≈ 0.605 µM)	0.25 µg/mL (≈ 0.605 µM)	0.25 µg/mL (≈ 0.605 µM)	≤ 0.06 µg/mL	–	–	–	0.5 µg/mL (≈ 1.21 µM)	1 µg/mL (≈ 2.42 µM)
